Measurements: patent US9186339B2, “Use of transcriptome modifying agents and chemotherapy or radiotherapy against cancer” (UNIVERSIDAD NACIONAL AUTONOMA DE MEXICO, priority 2005, dated 2015)
Like-named read-outs stand apart in the source and are kept apart here. Each block holds one compound with its values, some of them ahead of it.

What was measured:
HeLa cells = assay: MTT cell viability assay, chemotherapeutic agent plus composition; type: cell-based; settings: for viability reduction: chemotherapeutic agent plus hydralazine 10 μM and magnesium valproate 1 mM, viability on day 4
Description: With this objective, three drugs were selected that are representative of his class: alkylating agents as cisplatin, antibiotic as doxorrubicin, antimetabolite as gemcitabine. The cells were plated in 96-well plates (Falcon Becton Dickinson, Franklin Lakes, N.J.) at a density of 1.5-2.5×10^3 cells/well in 0.1 ml of complete media. The following day the cells were treated with the chemotherapeutic agent at the concentration indicated in FIGS. 2A, 2B y 2C plus hydralazine at 10 μM and valproic acid or magnesium valproate at 1 mM. On the next day, the media containing the drugs was removed and fresh hydralazine and magnesium valproate were added at same concentration for another additional 48 hours. On the following day (day 4) cell viability was measured using an MTT assay. Briefly, 50 μl of MTT reagent in phosphate buffered solution were added to each well. […] Thereafter it is read spectrophotometrically on a ELISA reader. All the assays were carried out in triplicate. The cytotoxic effect of each treatment was expressed in the percentage of cell viability relative to the untreated control (% control) which is defined as [(A570nm treated cells)/A570nm untreated cells)]×100.

[1] = system: sarcoma HT1080 cellular line tumors; assay: HT1080 sarcoma model in immunodeficient mice; type: in vivo, athymic mice
Description: Once the capacity of hydralazine and valproic acid or a salt thereof such as magnesium valproate to alter the expression génica in the patients' tumors was assessed, we investigate if the composition of these transcriptome modifying agents increased the antitumoral effect of the chemotherapy in a model of sarcoma in immunodeficient mice. With this goal, groups of 6 female athymic mice were studied, which were injected with 6 million cells of the sarcoma HT1080 cellular line. Once the tumors were formed, the animals were treated systemically with hydralazine and valproic acid or a salt thereof such as magnesium valproate with doses equivalent to those used in the patients. The groups of treatment were as follows: 1) control treated with saline solution, 2) treated weekly with adriamycin, 3) treated with the composition of hydralazine and valproato for 7 days followed by the same weekly treatment with adriamycin. […] This phenomenon occurs commonly in the treatment of the cancer in the patients, where often an entire or almost entire antitumoral response is observed to relapse later. The composition of the present invention therefore might induce extended or complete remissions of the tumors.

[2] = system: promoters of APC, MGMT, ER, GSTP1, DAPK, RARβ, FHIT and p16; settings: post-treatment biopsies
Description: (§1) Whit this goal, hydralazine was administered to groups of 4 patients each group at doses of: 1) 50 mg/day, 2) 75 mg/day, 3) 100 mg/day and 4) 150 mg/day for 10 days. Biopsies and peripheral blood samples were taken before commencing treatment and at day 11. The state of pre- and post-treatment methylation was analyzed for the promoters of the following genes: APC, MGMT; ER, GSTP1, DAPK, RARβ, FHIT and p16 as well as the state of expression of their messengers by RT-PCR. Also the state of methylation of the gene subject to parental unactivation H19, and a genomic clone which normally is found methylated was evaluated, as well as the global content of methylated citokines in the genome. The toxicity to hydralazine was evaluated using the escale from the U.S. National Cancer Institute (CTC NCI). […] FIG. 3A.

[3] = system: expression of suppressive genes (APC, MGMT, ER, GSTP1, DAPK, RARβ, FHIT, p16)
Description: as §1

[4] = 50-150 mg/day for 10 days, cancer patients
Description: as §1

[5] = Clinical study of magnesium valproate: toxicity; type: in vivo, human; settings: 20, 30, 40 mg/Kg for 5 days
Description: (§2) Twelve patients with this cancer of recent diagnosis and without previous treatment received the following doses of magnesium valproate in groups of 4 patients. Group 1, 20 mg/Kg, Group 2, 30 mg/kg, Group 3, 40 mg/Kg. A biopsy of the tumor and a blood sample were taken before the treatment and on the following day (day 6) since valproic acid or a salt thereof such as magnesium valproate was administered for 5 days in divided doses every 8 hours. The hyperacetylation of Histone H3 was analyzed in the samples and histone H4 in the tumor by Western blot, as well as the activity of histone deacetylases in nuclear extracts of the tumor using a calorimetric essay, as well as the levels of valproic acid in serum. The level of expression of the genes p21 and CAR was also analyzed in the pos-treatment biopsies. The toxicity of the treatment was recorded at the end of the cycle.

p21 = assay: Clinical study of magnesium valproate: gene expression in post-treatment biopsies; type: in vivo, human; settings: FIG. 8
Description: as §2

[6] = system: Histone H3 and histone H4; assay: Clinical study of magnesium valproate: histone hyperacetylation in tumor by Western blot; type: in vivo, human; settings: of 12 patients, after treatment
Description: as §2

histone deacetylases = assay: Clinical study of magnesium valproate: histone deacetylase activity in nuclear extracts of the tumor; type: in vivo, human
Description: as §2

SMILES: COc1cccc2c1C(=O)c1c(O)c3c(c(O)c1C2=O)C[C@@](O)(C(=O)CO)C[C@@H]3O[C@H]1C[C@H](N)[C@H](O)[C@H](C)O1 [adriamycin]
- viability reduction (HeLa cells): 27%
- tumor re-growth after 3 weeks ([1]; weekly adriamycin alone, or composition for 7 days followed by weekly adriamycin, FIG. 9): the tumors grow again
- antitumoral effect ([1]; weekly adriamycin, 3 weeks after treatment): almost complete antitumoral effect

SMILES: N.N.[Cl][Pt][Cl] [cisplatin]
- viability reduction (HeLa cells): 37%
- IC50 (HeLa cells; read-out: inhibitory concentration 50 (IC50)): 12 µM

SMILES: Nc1ccn([C@@H]2O[C@H](CO)[C@@H](O)C2(F)F)c(=O)n1 [gemcitabine]
- viability reduction (HeLa cells): 37%

SMILES: NNc1nncc2ccccc12 [hydralazine, 1-hydrazinophthalazine]
- percentage of demethylation ([2]; hydralazine 50 mg/day for 10 days): 40%
- percentage of demethylation ([2]; hydralazine 75 mg/day for 10 days): 52%
- percentage of demethylation ([2]; hydralazine 100 mg/day for 10 days): 43%
- percentage of demethylation ([2]; hydralazine 150 mg/day for 10 days): 32%
- frequency of demethylation, p16 ([2]; 2 out of 3): 67%
- frequency of demethylation, MGMT ([2]; 2 out of 13 samples): 15%
- effect on genic expression in patients with cancer ([3]; dose between 50 and 150 mg): effective to alter the genic expression
- cases demethylated post-treatment that re-expressed the gene ([3]; of the 12 informative cases): 9 cases
- tolerability [4]: well tolerated
- undesirable effects registered [4]: nausea, sickness, fatigue, headache and palpitations

- patients with no changes in activity of histone deacetylases (histone deacetylases): two
SMILES: CCCC(CCC)C(=O)O [magnesium valproate, 2-propylpentanoic acid]
- tolerability [5]: well tolerated
- patients with Grade 2 drowsiness ([5]; of 12 patients): nine
- expression of p21 (p21): increases its expression
- patients with hyperacetylation in both histones [6]: six
- patients with hyperacetylation of H3 [6]: nine
- patients with hyperacetylation of H4 [6]: seven
- patients in whom activity of histone deacetylases diminished (histone deacetylases; two-tailed t test p<0.0264): 8 patients
